Experiment: pH, calcium and phosphate contents of the solution surrounding the cement during the setting process
Type: physicochemical
Protocol: The ion concentrations of the solutions surrounding the cement were determined in that during the setting process samples of the solution were taken regularly and analyzed with regard to pH value (glass electrode), calcium contents and phosphate contents (photometric method), in accordance with the procedure described in connection with Example 2. No deviations into cell and tissue damaging pH ranges (pH<7 and pH>8) were measured. The determined calcium and phosphate ion concentrations were also at a level that is well tolerated by cells and tissue.
The ion concentrations of the solution surrounding the cement were determined in that during the setting process samples of the solution were taken regularly and analyzed with regard to pH value (glass electrode), calcium contents and phosphate contents (photometric method). […]
The ion concentration of the solution surrounding the bone cement was determined in that during the setting process regularly samples of the solution were taken and analyzed with regard to pH value (glass electrode), calcium contents and phosphate contents (photometric method). […] The determined calcium and phosphate ion concentrations were also at a level that is well tolerated by cells and tissue. […]

Q: Which “calcium concentration of the surrounding medium” value does the source give for Cc1ncc(C[n+]2csc(CCO[P@](=O)(O)OP(=O)(O)O)c2C)c(N)n1 [Thiamine pyrophosphate, thiamine pyrophosphate] here?
A: Its value is “approximately 2.5 mmol/l”.

From patent US20050217538A1, “Modified Calcium Phosphate Bone Cement” (TECHNISCHE UNIVERSITAT DRESDEN, priority 2004, published 2005)
